According to patent US20070128217A1 (priority 2003, published 2007):

Tests used:
[1] = test system: antibodies in sera from SARS patients (sera 1a, 1b, 2, 6, 37, 62, London, SARS-yellow, SARS-green); assay type: binding, human; design: Binding of serum 6 to linear peptides of protein X1 of SARS-CoV Urbani / Binding of serum 37 to linear peptides of protein X1 of SARS-CoV Urbani / Binding of serum 6 to looped/cyclic peptide (PEPSCAN-ELISA) / Binding of serum 37 to looped/cyclic peptide (PEPSCAN-ELISA) / Binding of serum 37 to looped/cyclic peptides of protein X1 of SARS-CoV Urbani / Binding of serum 6 to linear peptides of protein X2 / Binding of serum 37 to linear peptides of protein X2 / Binding of serum 37 to looped/cyclic peptides of protein X2 of SARS-CoV Urbani / Binding of serum 6 to linear peptides of protein M of SARS-CoV Urbani / Binding of serum 37 to linear peptides of protein M of SARS-CoV Urbani / Binding of serum 6 to looped/cyclic peptides of protein M of SARS-CoV Urbani / Binding of serum 37 to looped/cyclic peptides of protein M of SARS-CoV Urbani / Binding of serum 6 to linear peptides of protein X3 of SARS-CoV Urbani / Binding of serum 37 to linear peptides of protein X3 of SARS-CoV Urbani / Binding of serum 37 to looped/cyclic peptides of protein X3 of SARS-CoV Urbani / Binding of serum 6 to linear peptides of protein X4 of SARS-CoV Urbani / Binding of serum 37 to linear peptides of protein X4 of SARS-CoV Urbani / Binding of serum 37 to looped/cyclic peptides of protein X4 of SARS-CoV Urbani / Binding of serum 6 to linear peptides of protein X5 of SARS-CoV Urbani / Binding of serum 37 to linear peptides of protein X5 of SARS-CoV Urbani / Binding of serum 37 to looped/cyclic peptides of protein X5 of SARS-CoV Urbani / Binding of serum 6 to linear peptides of protein N of SARS-CoV Urbani / Binding of serum 37 to linear peptides of protein N of SARS-CoV Urbani / Binding of serum 6 to linear peptide (PEPSCAN-ELISA) / Binding of serum 1a to looped/cyclic peptides of protein N of SARS-CoV Urbani / Binding of serum 1b to looped/cyclic peptides of protein N of SARS-CoV Urbani / Binding of serum 2 to looped/cyclic peptides of protein N of SARS-CoV Urbani / Binding of serum 6 to looped/cyclic peptides of protein N of SARS-CoV Urbani / Binding of serum 37 to looped/cyclic peptides of protein N of SARS-CoV Urbani / Binding of serum 62 to looped/cyclic peptides of protein N of SARS-CoV Urbani / Binding of serum London to looped/cyclic peptides of protein N of SARS-CoV Urbani / Binding of serum SARS-green to looped/cyclic peptides of protein N of SARS-CoV Urbani: unit not given here
[2] = test system: control sera (pooled serum of ten healthy LUMC hospital workers; commercial negative donor pooled serum from the Dutch bloodbank); assay type: binding, human; design: Binding of Control serum LUMC to linear peptides / Binding of Control serum Blood-bank to linear peptides / Binding of Control serum LUMC to looped peptides / Binding of Control Serum Blood-Bank to Looped peptides / Binding of Control serum LUMC to linear peptides of the protein M of SARS-CoV Urbani / Binding of Control serum Blood-bank to linear peptides of the protein M of SARS-CoV Urbani / Binding of Control serum LUMC to looped peptides of the protein M of SARS-CoV Urbani / Binding of Control Serum Blood-Bank to Looped peptides of the protein M of SARS-CoV Urbani: unit not given here
[3] = test system: rabbit serum obtained by immunizing a rabbit with the SARS-CoV strain Frankfurt 1; assay type: binding; design: Binding of a rabbit serum to linear peptides / Binding of a rabbit serum to looped peptides / Rabbit serum linear peptides / Rabbit serum looped peptides / Binding of a rabbit serum to linear peptides of protein N of SARS-CoV Urbani (Rabbit serum linear peptides) / Binding of a rabbit serum to looped/cyclic peptides of protein N of SARS-CoV Urbani (Rabbit serum looped peptides): unit not given here
[4] = test system: recombinant human anti-SARS-CoV antibody 03-018; assay type: binding; design: Binding of antibody 03-018 to linear peptides of the N protein of SARS-CoV Urbani / Binding of antibody 03-018 to looped/cyclic peptides of the N protein of SARS-CoV Urbani: unit not given here

Sequence | Binding of serum 1a to linear peptides of protein N of SARS-CoV Urbani [1] | Binding of serum 1a to looped/cyclic peptides of protein N of SARS-CoV Urbani [1] | Binding of serum 1b to linear peptides of protein N of SARS-CoV Urbani [1] | Binding of serum 1b to looped/cyclic peptides of protein N of SARS-CoV Urbani [1] | Binding of serum 2 to linear peptides of protein N of SARS-CoV Urbani [1] | Binding of serum 2 to looped/cyclic peptides of protein N of SARS-CoV Urbani [1] | Binding of serum 6 to linear peptides of protein N of SARS-CoV Urbani [1] | Binding of serum 6 to looped/cyclic peptides of protein N of SARS-CoV Urbani [1] | Binding of serum 37 to linear peptides of protein N of SARS-CoV Urbani [1] | Binding of serum 37 to looped/cyclic peptides of protein N of SARS-CoV Urbani [1] | Binding of serum 62 to linear peptides of protein N of SARS-CoV Urbani [1] | Binding of serum 62 to looped/cyclic peptides of protein N of SARS-CoV Urbani [1] | Binding of serum London to linear peptides of protein N of SARS-CoV Urbani [1] | Binding of serum London to looped/cyclic peptides of protein N of SARS-CoV Urbani [1] | Binding of serum SARS-green to linear peptides of protein N of SARS-CoV Urbani [1] | Binding of serum SARS-green to looped/cyclic peptides of protein N of SARS-CoV Urbani [1] | Binding of serum SARS-yellow to linear peptides of protein N of SARS-CoV Urbani [1] | Binding of serum SARS-yellow to looped/cyclic peptides of protein N of SARS-CoV Urbani [1] | Binding of a rabbit serum to linear peptides of protein N of SARS-CoV Urbani (Rabbit serum linear peptides) [3] | Binding of a rabbit serum to looped/cyclic peptides of protein N of SARS-CoV Urbani (Rabbit serum looped peptides) [3] | further results
AFFGMSRIGMEVTPS | 0.3 | 0.4 | 0.1 | 0.3 | 0.2 | 0.4 | 0.2 | 0.2 | 0.6 | 0.6 | 0.7 | 0.6 | 0.5 | 0.4 | 0.2 | 0.4 | 0.5 | 0.5 | 0.1 | 0.5 | Control Serum Blood-Bank Looped peptides [2]: 0.6; Control serum Blood-bank linear peptides [2]: 0.7; Control serum LUMC linear peptides [2]: 0.6; Control serum LUMC looped peptides [2]: 0.8; Binding of antibody 03-018 to linear peptides of the N protein of SARS-CoV Urbani [4]: 0.1; Binding of antibody 03-018 to looped/cyclic peptides of the N protein of SARS-CoV Urbani [4]: 0.2
ALALLLLDRLNQLES |  | 0.4 |  | 0.2 |  | 0.4 |  | 0.2 |  | 0.8 |  | 0.7 |  | 0.5 |  | 0.4 |  | 0.5 | 0.2 | 0.6 | Binding of serum 1a to linear peptide (PEPSCAN-ELISA) [1]: 0.3; Binding of serum 1b to linear peptide (PEPSCAN-ELISA) [1]: 0.2; Binding of serum 2 to linear peptide (PEPSCAN-ELISA) [1]: 0.1; Binding of serum 6 to linear peptide (PEPSCAN-ELISA) [1]: 0.2; Binding of serum 37 to linear peptide (PEPSCAN-ELISA) [1]: 0.5; Binding of serum 62 to linear peptide (PEPSCAN-ELISA) [1]: 0.6; Binding of serum London to linear peptide (PEPSCAN-ELISA) [1]: 0.5; Binding of serum SARS-green to linear peptide (PEPSCAN-ELISA) [1]: 0.4; Binding of serum SARS-yellow to linear peptide (PEPSCAN-ELISA) [1]: 0.5; Binding of Control Serum Blood-Bank to Looped peptides [2]: 0.8; Binding of Control serum Blood-bank to linear peptides [2]: 0.7; Binding of Control serum LUMC to linear peptides [2]: 0.7; Binding of Control serum LUMC to looped peptides [2]: 0.8; Binding of antibody 03-018 to linear peptides of the N protein of SARS-CoV Urbani [4]: 0.1; Binding of antibody 03-018 to looped/cyclic peptides of the N protein of SARS-CoV Urbani [4]: 0.3
APRITFGGPTDSTDN | 0.2 | 0.4 | 0.2 | 0.2 | 0.2 | 0.3 | 0.2 | 0.2 | 0.8 | 0.6 | 0.7 | 0.6 | 0.6 | 0.2 | 0.6 | 0.6 | 0.3 | 0.4 | 0.2 | 0.6 | Binding of Control Serum Blood-Bank to Looped peptides [2]: 0.6; Binding of Control serum Blood-bank to linear peptides [2]: 0.6; Binding of Control serum LUMC to linear peptides [2]: 0.5; Binding of Control serum LUMC to looped peptides [2]: 0.6; Recognition of the peptide by antibody 03-018 [4]: recognized
APSASAFFGMSRIGM | 0.2 | 0.4 | 0.1 | 0.3 | 0.2 | 0.7 | 0.1 | 0.4 | 0.5 | 0.7 | 0.5 | 0.9 | 0.6 | 2.0 | 0.2 | 0.5 | 0.4 | 0.6 | 0.1 | 0.4 | Control Serum Blood-Bank Looped peptides [2]: 0.8; Control serum Blood-bank linear peptides [2]: 0.7; Control serum LUMC linear peptides [2]: 0.5; Control serum LUMC looped peptides [2]: 0.6; Binding of antibody 03-018 to linear peptides of the N protein of SARS-CoV Urbani [4]: 0.1; Binding of antibody 03-018 to looped/cyclic peptides of the N protein of SARS-CoV Urbani [4]: 0.2
